From publication PMC5923414, “Terpenoids from the Soft Coral Sinularia sp. Collected in Yongxing Island” (Marine Drugs, 2018) come the findings set out here.

Molecules are shown by their SMILES. Read-outs that look alike come from different tables or passages of the source.

Data set [1] relates to Plasmodium falciparum 3D7. The experiment in a line: in vitro antimalarial activity, SYBR-Green assay. The format is cell-based. The conditions noted are these: 10 nM dihydroartemisinine as positive control, read-out: IC50, antimalarial activity against P. falciparum 3D7. As to the method: The in vitro antimalarial activity was assessed against P. falciparum (3D7) using an SYBR-Green assay with 10 nM dihydroartemisinine as positive control. Twelve diluted samples (5 µM, 10 µM, 20 µM, 40 µM, 80 µM, 100 µM, 200 µM, 400 µM, 800 µM, 1 mM, 2 mM, and 4 mM) were added to the test wells to obtain the 50% inhibiting concentration.

Data set [2] relates to influenza A virus (PR8). The experiment in a line: antiviral activity, CPE inhibition assay. It counts as cell-based. The conditions noted are these: read-out: IC50 against influenza A virus PR8. As to the method:
(§1) The antiviral activities against influenza A virus (H1N1) and (PR8) were evaluated by the CPE inhibition assay as the literature reported. […]

Data set [3] has as its system influenza A virus (H1N1). The experiment in a line: antiviral activity, CPE inhibition assay. It counts as cell-based. The protocol:
as §1

The target of data set [4] is acetylcholinesterase (Homo sapiens, UniProt P22303). The experiment in a line: acetylcholinesterase inhibition, Ellman spectrophotometric method. It counts as biochemical. The conditions noted are these: at 50 μg/mL; read-out: inhibition rate against acetylcholinesterase. The protocol:
(§2) Evaluation of the inhibitory effects on acetylcholinesterase was performed by the spectrophotometric method developed by Ellman with slight modifications as reported, and on c-Met and PTP1B by using the enzyme-linked immunosorbent assay (ELISA) methodology.
Background: DTNB colorimetry detects thiols as they appear.

A short description of data set [5]: cytotoxicity, MTT method. The format is cell-based. The conditions noted are these: human. The protocol: The cytotoxicities against Jurkat, MDA-MB-231, U2OS, HeLa, HCT-116, and A549 cell lines were assayed by MTT method with Adriamycin as a positive control. All the cell lines were purchased from Shanghai Institute of Cell Biology (Shanghai, China).
In general terms: Tetrazolium dyes change colour on reduction, which living cells bring about.

Data set [6] has as its target T1, protein tyrosine phosphatase 1B (PTP1B) (Homo sapiens, UniProt P18031).
T1 sequence (P18031 1-435): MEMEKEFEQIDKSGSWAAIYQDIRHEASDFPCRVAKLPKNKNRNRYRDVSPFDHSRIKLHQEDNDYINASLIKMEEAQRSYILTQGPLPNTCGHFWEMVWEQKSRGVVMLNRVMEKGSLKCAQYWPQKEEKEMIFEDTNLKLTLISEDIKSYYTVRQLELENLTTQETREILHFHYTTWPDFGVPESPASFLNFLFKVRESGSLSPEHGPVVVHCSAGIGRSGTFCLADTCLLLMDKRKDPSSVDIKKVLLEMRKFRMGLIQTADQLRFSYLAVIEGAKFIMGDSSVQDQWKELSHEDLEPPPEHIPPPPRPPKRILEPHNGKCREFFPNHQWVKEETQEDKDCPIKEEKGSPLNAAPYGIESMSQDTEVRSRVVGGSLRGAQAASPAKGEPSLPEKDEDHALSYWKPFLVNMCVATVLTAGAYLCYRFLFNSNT
Kind of data set: biochemical. The conditions noted are these: read-out: IC50, target inhibitory activity against PTP1B. As to the method:
as §2

Sequence of acetylcholinesterase (P22303 32-614, species assumed): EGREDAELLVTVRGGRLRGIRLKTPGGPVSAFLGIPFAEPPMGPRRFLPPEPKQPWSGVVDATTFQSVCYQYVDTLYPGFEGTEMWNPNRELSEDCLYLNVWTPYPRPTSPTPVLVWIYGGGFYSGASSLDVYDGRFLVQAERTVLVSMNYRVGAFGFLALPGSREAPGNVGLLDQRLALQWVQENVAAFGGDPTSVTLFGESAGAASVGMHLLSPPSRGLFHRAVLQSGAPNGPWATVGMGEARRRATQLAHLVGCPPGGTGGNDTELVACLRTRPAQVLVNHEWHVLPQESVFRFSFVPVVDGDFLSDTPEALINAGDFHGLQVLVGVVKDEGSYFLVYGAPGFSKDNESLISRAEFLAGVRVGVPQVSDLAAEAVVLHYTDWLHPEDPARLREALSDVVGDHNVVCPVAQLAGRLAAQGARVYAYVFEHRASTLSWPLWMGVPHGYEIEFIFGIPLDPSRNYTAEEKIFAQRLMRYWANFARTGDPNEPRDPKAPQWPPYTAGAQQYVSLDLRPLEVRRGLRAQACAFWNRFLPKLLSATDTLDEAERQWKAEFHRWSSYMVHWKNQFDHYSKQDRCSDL

As for `C=C1CCC2(O)CC3(CCC(C(C)C)C3C1)OO2` (stereo not shown) [Compound 1, Sinuketal], the IC50 (as a rule, the concentration at which inhibition is half-maximal) in data set [1] was found to be 80 µM; in data set [2] it was 443 µM; in data set [3] (H1N1, read-out: IC50 against influenza A virus H1N1) it was 172 µM; in data set [5] (Jurkat cells, Jurkat cell line, read-out: IC50, cytotoxic activity toward Jurkat), 24.9 µM; in data set [5] (MDA-MB-231 cells, MDA-MB-231 cell line, read-out: IC50, cytotoxic activity toward MDA-MB-231), 32.3 µM; in data set [5] (U2OS cells, U2OS cell line, read-out: IC50, cytotoxic activity toward U2OS) it was 41.7 µM. Further, the inhibition (usually the relative decrease from the control value, in per cent) at 50 µg/mL in data set [4] is 20.2%.
As for `C=C(C)C1CC=C(C(=O)OC)CC(=O)CC2(C)CC(=O)C(CC(=O)C1)O2` (stereo not shown) [Compound 5, sinulin D], the IC50 in data set [6] stood at 47.5 µM.
With `CC(C)[C@@H]1CC[C@@](C)(O)[C@@H]2CCC(CO)=C[C@H]21` [Compound 11, 15-hydroxy-α-cadinol], the IC50 in data set [6] stood at 22.1 µM.
Consider `C=C(C)C1CCC(C)=CCCC(C)=CCCC2(C)OC2C1` [Compound 15, (1R,3S,4S,7E,11E)-3,4-epoxycembra-7,11,15-triene], for which the IC50 in data set [6] is 12.5 µM.
`C=C(C)[C@@H]1C/C=C2\C(=O)O[C@@H](C[C@]3(C)CC(=O)[C@H](CC(=O)C1)O3)[C@@H]2O` [Compound 20, 5-episinuleptolide]: the IC50 in data set [5] (HCT-116 cells, HCT-116 cell line, read-out: IC50, cytotoxicity against HCT-116) is 33.3 µM; in data set [5] (HeLa cells, HeLa cell line, read-out: IC50, cytotoxicity against HeLa), 11.6 µM.
As to `NC(=O)c1ncn([C@@H]2O[C@H](CO)[C@@H](O)[C@H]2O)n1` [ribavirin, reference compound], the IC50 in data set [3] (positive control, strain (H1N1 or PR8) not specified, read-out: IC50 of positive control, influenza A viruses) was 103 µM.
